This is an account of results in PubChem BioAssay AID1208 (EPA DSSTox, 2008).

This series concerns rat chronic carcinogenicity bioassay, TD50. As to the kind of experiment: DSSTox (CPDBAS) Carcinogenic Potency Database Summary Rat Bioassay Results. The note with it: for Potency: hits give low values; for outcome: TD50_Rat_Note: no positive results. From the text: The Carcinogenic Potency Database (CPDB) is a unique and widely used international resource of the results of over 6500 chronic, long-term animal cancer tests on over 1500 chemical substances. The CPDB provides easy access to the bioassay literature, with qualitative and quantitative analyses of both positive and negative experiments that have been published over the past 50 years in the general literature and by the National Cancer Institute/National Toxicology Program. The CPDB standardizes the diverse literature of cancer bioassays that vary widely in protocol, histopathological examination and nomenclature, and in the published author's choices of what information to provide in their papers. Results are reported in the CPDB for tests in rats, mice, hamsters, dogs, and nonhuman primates, and are based on the most positive result among all experiments for each sex-species. The DSSTox CPDBAS (all species) file incorporates data from the CPDB Summary Tables for the full list of over 1500 chemical substances tested in at least one species. Summary bioassay results for Rat (TD50, tumor sites, male, female, both sexes) are provided in the CPDB Summary Tables and the DSSTox CPDBAS file for over 1200 chemical substances.
TD50 is a standardized quantitative measure of carcinogenic potency (analogous to an LD50) and is reported in the CPDB Summary Table for each species. Activity Score for actives is computed by mapping of LOG10 (1/TD50_Rat_mmol) activity values spanning range [MIN, MAX] onto Integer 1-100 Activity Score range, where 100 is highest potency and 1 is lowest: Activity Score = 100 * INTEGER[(log10(1/Activity) - MIN)/(MAX - MIN)]. If activity is reported but no TD50_Rat_mmol value is computed, such as for a mixture, the Activity Score is assigned the activity value "50". […] Target sites are reported for each sex-species group with a positive result in the CPDB on the basis of a positive author's opinion for the particular site, using all results from both the general literature and NCI/NTP bioassays. If a chemical has two or more target sites listed, the results may be from different experiments, and a single site may be a target organ in more than one experiment, as well. Blank entry in TargetSites field indicates no results reported.

[1] abbreviates: TD50_Rat_Note: TD50 is harmonic mean of more than one positive test, TargetSites_Rat_Female: liver.
Where [2] appears, read: TargetSites_Rat_Female: no positive results.
The mark [3] stands for this setting: TD50_Rat_Note: TD50 is harmonic mean of more than one positive test, TD50_Rat_mmol was not calculated for this mixture, but Activiity S, TargetSites_Rat_Female: liver.

Each structure is given as a SMILES string. Calls of active or inactive are those of the source.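 Rule for the calls: active = at least one rat sex group has a carcinogenic potency value and tumor site recorded; inconclusive = only rat studies were judged inadequate by the national testing program; inactive = no potency or tumor site, with negative rat experiments.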 *1 amine or outer side, *2 acyl side, *3 side chain or, on linkers, in order; H or OH if unused. Where a SMILES comes first, the peptide text is derived from it. Bridges are numbered along the chain shown (N, C = ends). Roman numbers before positions name the chains, in order. [ ]: non-standard residue; d: D form. Actinocin(1to9) = Cc1c2oc3c(C)ccc(C(=O)[*:2])c3nc-2c(C(=O)[*:1])c(N)c1=O; d(aIle) = CC[C@H](C)[C@@H](N)C(=O)O; NMeV = CN[C@H](C(=O)O)C(C)C; Sar = CNCC(=O)O

On to `N=C1C=CC(=C(c2ccc(N)cc2)c2ccc(N)cc2)C=C1`, for which, where the note is “TD50_Rat_Note: TD50 is harmonic mean of more than one positive test, TargetSites_Rat_Female: ear Zymbals gland, subcutaneous tissue, thyroid gland”, the Potency is 39.4 mg/kg/day.

`CC(O)CN(N=O)C(=O)NCCCl` (stereo not given): the Potency under setting [1] was 0.873 mg/kg/day.

On to `CN(C)C(=O)Nc1cccc(C(F)(F)F)c1`, for which the outcome under setting [2] was “inactive; no positive results”.

Take `CN(C)CCN(Cc1cccs1)c1ccccn1`: the Potency under setting [1] was 9.13 mg/kg/day.

With `CS(=O)(=O)OCCCCOS(C)(=O)=O`, the outcome was “inactive; no positive results”.

With `O=c1cc[nH]c(=O)[nH]1`, the Potency (TD50_Rat_Note: TD50 is harmonic mean of more than one positive test, greater than ten-fold variation among TD50 values for positive res, TargetSites_Rat_Female: urinary bladder) was 671 mg/kg/day.

For `CC(=O)Nc1ccc2c(c1)Cc1ccccc1-2`, the Potency (TD50_Rat_Note: TD50 is harmonic mean of more than one positive test, TargetSites_Rat_Female: liver, mammary gland, skin) was 1.22 mg/kg/day.

As to `C1CNCCN1`, under setting [2], the outcome was “inactive; no positive results”.

For `Nc1ccc2ccccc2c1`, the Potency (TargetSites_Rat_Female: urinary bladder, TargetSites_Rat_BothSexes: no positive results) is 61.6 mg/kg/day.

`Cc1cc(C)c(N)cc1C`: the Potency is 33.6 mg/kg/day (TD50_Rat_Note: TD50 is harmonic mean of more than one positive test, TargetSites_Rat_Female: liver, lung) and 98.5 mg/kg/day (TD50_Rat_Note: no positive results are statistically significant).

`C=CF`: the Potency (TD50_Rat_Note: TD50 is harmonic mean of more than one positive test, TargetSites_Rat_Female: ear Zymbals gland, liver, vascular system) is 20 mg/kg/day.

`CCOP(=S)(OCC)SC1OCCOC1SP(=S)(OCC)OCC` (stereo not given): the outcome under setting [2] was “inactive; no positive results”.

In the case of `CC[C@H](C)[C@H]1NC(=O)[C@@H](NC(=O)c2c3nc4c(C(=O)N[C@@H]5C(=O)N[C@H](C(C)C)C(=O)N6CCC[C@H]6C(=O)N(C)CC(=O)N(C)[C@@H](C(C)C)C(=O)O[C@@H]5C)ccc(C)c4oc-3c(C)c(=O)c2N)[C@@H](C)OC(=O)[C@H](C(C)C)N(C)C(=O)CN(C)C(=O)[C@@H]2CCCN2C1=O` (I: T[d(aIle)]P[Sar][NMeV] / II: T[dV]P[Sar][NMeV]; ester I:1-I:C, II:1-II:C; linker I:N-II:N via Actinocin(1to9)), the outcome is “inactive; no positive results”.

Regarding `N#Cc1ccc(C2CCCc3cncn32)cc1` (stereo not given), the outcome under setting [2] is “inactive; no positive results”.

`Cc1ccc(N=C=O)cc1N=C=O`: the Potency (TD50_Rat_Note: TD50 is harmonic mean of more than one positive test, TargetSites_Rat_Female: liver, mammary gland, pancreas, subcutaneous tissue) is 33.7 mg/kg/day.

With `ClC1C(Cl)C(Cl)C(Cl)C(Cl)C1Cl` (stereo not given), the Potency was 11.2 mg/kg/day. The outcome under setting [2] was “inactive; no positive results”.

As to `C=C(C)C(=O)OC`, the outcome under setting [2] was “inactive; no positive results”.

For the compound `S=C(NC1CCCCC1)NC1CCCCC1`, the outcome under setting [2] was “inactive; no positive results”.

For the compound `O=C1CCCCCN1`, the outcome under setting [2] is “inactive; no positive results”.

In the case of `c1ccc(N=Nc2ccccc2)cc1`, the Potency (TD50_Rat_Note: TD50 is harmonic mean of more than one positive test, TargetSites_Rat_Female: spleen) is 24.1 mg/kg/day.

Turning to `CC(I)C1OCC(CO)O1` (stereo not given), under setting [2], the Potency is 101 mg/kg/day.

For `Cc1ncc([N+](=O)[O-])n1CCO`, the Potency (TD50_Rat_Note: TD50 is harmonic mean of more than one positive test, TargetSites_Rat_Female: liver, mammary gland) was 542 mg/kg/day.

`C[C@H](CCc1ccccc1)NC[C@H](O)c1ccc(O)c(C(N)=O)c1`: under setting [2], the outcome is “inactive; no positive results”.

For `N#Cc1c(Cl)c(Cl)c(Cl)c(C#N)c1Cl`, the Potency (TD50_Rat_Note: TD50 is harmonic mean of more than one positive test, TargetSites_Rat_Female: kidney) is 2270 mg/kg/day.

Turning to `[Cd+2].[Cl-].[Cl-]`, for the setting “TD50_Rat_Note: TD50 is harmonic mean of more than one positive test, greater than ten-fold variation among TD50 values for positive res, TargetSites_Rat_Female: lung”, the Potency was 0.0136 mg/kg/day.

For `O=NN(CCO)CCO`, the Potency (TD50_Rat_Note: TD50 is harmonic mean of more than one positive test, greater than ten-fold variation among TD50 values for positive res, TargetSites_Rat_Female: esophagus, kidney, liver, nasal cavity) is 3.17 mg/kg/day.

As for `Nc1ccccc1C(=O)OC/C=C/c1ccccc1`, under setting [2], the Potency was 12100 mg/kg/day.

Turning to `O=[N+]([O-])c1ccc(Cl)c([N+](=O)[O-])c1`, the outcome was “inactive; no positive results”.

Regarding `Clc1ccc(-c2cccc(Cl)c2Cl)c(Cl)c1`, the Potency under setting [3] is 11.8 mg/kg/day.

`COC(=O)C1=C(C)NC(C)=C(C(=O)OCCc2ccc(N3CCN(C(c4ccccc4)c4ccccc4)CC3)cc2)C1c1cccc([N+](=O)[O-])c1` (stereo not given): the outcome under setting [2] was “inactive; no positive results”.

As to `Cn1c(=O)c2c(ncn2C)n(C)c1=O`, the outcome under setting [2] is “inactive; no positive results”.

For the compound `CCN(Cc1cccc(S(=O)(=O)O)c1)c1ccc(C(=C2C=CC(=[N+](CC)Cc3cccc(S(=O)(=O)O)c3)C=C2)c2ccc(O)cc2S(=O)(=O)[O-])cc1`, under setting [2], the outcome was “inactive; no positive results”.

For the compound `O=[N+]([O-])c1ccccc1`, under “TD50_Rat_Note: TD50 is harmonic mean of more than one positive test, TargetSites_Rat_Female: liver, uterus”, the Potency was 25.5 mg/kg/day.

On to `CCN=c1cc2oc3cc(NCC)c(C)cc3c(-c3ccccc3C(=O)OCC)c-2cc1C`, for which, under setting [2], the outcome was “inactive; no positive results”.

`C/C(=C(\CCOC(=O)c1ccccc1)SC(=O)c1ccccc1)N(C=O)Cc1cnc(C)nc1N`: the outcome under setting [2] is “inactive; no positive results”.

On to `ClC1=C(Cl)[C@@]2(Cl)[C@@H]3[C@@H](Cl)[C@H](Cl)C[C@@H]3C1(Cl)C2(Cl)Cl`, for which the outcome under setting [2] was “inactive; no positive results”.

Turning to `Cc1cc(C(C)(C)C)c(O)c(C(C)(C)C)c1`, the outcome under setting [2] is “inactive; no positive results”.

Regarding `Nc1ccc(-c2ccccc2)cc1`, the Potency (TargetSites_Rat_Female: mammary gland) was 0.98 mg/kg/day.

With `C=CC=C`, where the note is “TD50_Rat_Note: TD50 is harmonic mean of more than one positive test, greater than ten-fold variation among TD50 values for positive res, TargetSites_Rat_Female: mammary gland”, the Potency is 261 mg/kg/day.

In the case of `Nc1ccc(-c2ccc(N)c(N)c2)cc1N`, the Potency was 395 mg/kg/day.

Regarding `O=P(=O)O`, under setting [2], the outcome is “inactive; no positive results”.

As to `C=CC(OCC)OCC`, the outcome under setting [2] was “inactive; no positive results”.

Turning to `C=CCc1ccc2c(c1)OCO2`, the Potency (TD50_Rat_Note: TD50 is harmonic mean of more than one positive test, TargetSites_Rat_BothSexes: liver) is 441 mg/kg/day.

For the compound `OCC(CO)N[C@H]1C[C@](O)(CO)[C@@H](O)[C@H](O)[C@H]1O`, the outcome under setting [2] is “inactive; no positive results”.

Take `CCSC[C@H](N)C(=O)O`: the outcome was “inactive; no positive results”.

For `Cc1ccc(N=Nc2c(O)c(S(=O)(=O)O)cc3ccc(S(=O)(=O)O)cc23)c(C)c1`, the Potency (TD50_Rat_Note: TD50 value less than the reported upper confidence limit, TD50 is harmonic mean of more than one positive test, harmonic, TargetSites_Rat_Female: liver) is 415 mg/kg/day.

For the compound `C=C(Cl)CSC(=S)N(CC)CC`, under “TD50_Rat_Note: TD50 is harmonic mean of more than one positive test, TargetSites_Rat_Female: mammary gland”, the Potency was 26.1 mg/kg/day.

Turning to `COC(=O)C1=CCCN(N=O)C1`, the outcome is “inactive; no positive results”.

As for `Cc1cc(-c2ccc(N)c(C)c2)ccc1N`, the Potency (TD50_Rat_Note: TD50 is harmonic mean of more than one positive test, TargetSites_Rat_Female: clitoral gland, ear Zymbals gland, large intestine, liver, lung, mammary gland, oral cavity, skin, small intestine) is 0.629 mg/kg/day.

Turning to `ClC1=C(Cl)[C@]2(Cl)[C@@H]3[C@@H]4C[C@@H]([C@H]5O[C@@H]45)[C@@H]3[C@@]1(Cl)C2(Cl)Cl`, the outcome under setting [2] was “inactive; no positive results”.

In the case of `COC(=O)[C@H]1[C@H]2C[C@@H]3c4[nH]c5cc(OC)ccc5c4CCN3C[C@H]2C[C@@H](OC(=O)c2cc(OC)c(OC)c(OC)c2)[C@@H]1OC`, under setting [2], the Potency is 0.306 mg/kg/day.

For the compound `O=C1C2(Cl)C3(Cl)C4(Cl)C(Cl)(Cl)C5(Cl)C3(Cl)C1(Cl)C5(Cl)C24Cl` (stereo not given), for the setting “TargetSites_Rat_Female: liver”, the Potency was 2.96 mg/kg/day.

Take `Clc1ccc(-c2ccc(Cl)c(Cl)c2Cl)c(Cl)c1Cl`: the Potency under setting [3] was 2.81 mg/kg/day.

Take `O=Cc1ccco1`: under setting [2], the Potency is 683 mg/kg/day.

As for `COc1cc2c(c3oc(=O)c4c(c13)CCOC4=O)C1C=COC1O2` (stereo not given), the Potency (TD50_Rat_Note: TD50 is harmonic mean of more than one positive test, TD50_Rat_mmol was not calculated for this mixture, but Activiity S) was 0.00299 mg/kg/day.

For `O=NN1CCOC(O)C1` (stereo not given), the result under setting [2] was inactive.

Turning to `C#C[C@]1(OC(C)=O)CC[C@H]2[C@@H]3CCC4=CC(=O)CC[C@@H]4[C@H]3CC[C@@]21C`, where the note is “TD50_Rat_Note: TD50_Rat_mmol was not calculated for this mixture, but Activiity Score is assigned value of 50 to indicate active, TargetSites_Rat_BothSexes: liver, mammary gland, pituitary gland, uterus”, the Potency was 1.94 mg/kg/day.

For `O=C(O)c1ccc(N=Nc2ccc(O)c(C(=O)O)c2)cc1`, under setting [2], the outcome was “inactive; no positive results”.
